Measured values as given in patent publication US20120190666A1, “Heteroaryl Compounds as PIKK Inhibitors” (Amgen Inc., priority 2009, published 2012).

Test system: phosphorylation of Akt at Serine 473 in U87 MG cells
Assay: pAkt AlphaScreen (U87 cell)
Type: cell-based
Details: Homo sapiens, U-87 MG, 2 h; pAkt at Serine 473, U87 MG cells, two hours with compound
Outline: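 U87 MG cells (5K per well, plated overnight) treated 2 h at 37 °C with compound, 25 μM to 11.9 pM final in 0.5% DMSO. Lysates assayed for Akt Ser473 phosphorylation with SureFire AlphaScreen, incubated overnight at room temperature; IC50 from percent of control.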

For `Cc1nc(N)nc(-c2c(Nc3cc[nH]n3)nc3ccc(C4=CCN(C(=O)OC(C)(C)C)CC4)cn23)n1` [Cpd 97, tert-butyl 4-(3-(4-amino-6-methyl-1,3,5-triazin-2-yl)-2-(1H-pyrazol-3-ylamino)imidazo[1,2-a]pyridin-6-yl)-3,6-dihydro-1(2H)-pyridinecarboxylate], the IC50 was 30 nM.

For `CNC(=O)c1ccc(-c2ccc3nc(Nc4cc[nH]n4)c(-c4nc(C)nc(N)n4)n3c2)cc1F` [Cpd 99, 4-(3-(4-amino-6-methyl-1,3,5-triazin-2-yl)-2-(1H-pyrazol-3-ylamino)imidazo[1,2-a]pyridin-6-yl)-2-fluoro-N-methylbenzamide], the IC50 was 10 nM.

`CC(=O)NCc1ccc(-c2ccc3nc(Nc4cc[nH]n4)c(-c4nc(C)nc(N)n4)n3c2)cc1` [Cpd 100, N-(4-(3-(4-amino-6-methyl-1,3,5-triazin-2-yl)-2-(1H-pyrazol-3-ylamino)imidazo[1,2-a]pyridin-6-yl)benzyl)acetamide] was tested, and the IC50 was 10 nM.

In the case of `Cc1nc(N)nc(-c2c(Nc3cc[nH]n3)nc3ccc(-c4ccoc4)cn23)n1` [Cpd 105, 3-(4-amino-6-methyl-1,3,5-triazin-2-yl)-6-(3-furanyl)-N-1H-pyrazol-3-ylimidazo[1,2-a]pyridin-2-amine], the IC50 is reported as 50 nM.

With `Cc1nc(N)nc(-c2c(Nc3cc[nH]n3)nc3ccc(-c4ccc(F)cc4C)cn23)n1` [Cpd 107, 3-(4-amino-6-methyl-1,3,5-triazin-2-yl)-6-(4-fluoro-2-methylphenyl)-N-1H-pyrazol-3-ylimidazo[1,2-a]pyridin-2-amine] the IC50 was 130 nM.

`CSc1cccc(-c2ccc3nc(Nc4cc[nH]n4)c(-c4nc(C)nc(N)n4)n3c2)c1` [Cpd 109, 3-(4-amino-6-methyl-1,3,5-triazin-2-yl)-6-(3-(methylsulfanyl)phenyl)-N-1H-pyrazol-3-ylimidazo[1,2-a]pyridin-2-amine] gave an IC50 of 220 nM.

Work on `CC(=O)Nc1cccc(-c2ccc3nc(Nc4cc[nH]n4)c(-c4nc(C)nc(N)n4)n3c2)c1` [Cpd 114, N-(3-(3-(4-amino-6-methyl-1,3,5-triazin-2-yl)-2-(1H-pyrazol-3-ylamino)imidazo[1,2-a]pyridin-6-yl)phenyl)acetamide] yielded an IC50 of 30 nM.

Work on `Cc1nc(N)nc(-c2c(Nc3cc[nH]n3)nc3ccc(-c4cccc(NC(=O)C5CC5)c4)cn23)n1` [Cpd 115, N-(3-(3-(4-amino-6-methyl-1,3,5-triazin-2-yl)-2-(1H-pyrazol-3-ylamino)imidazo[1,2-a]pyridin-6-yl)phenyl)cyclopropanecarboxamide] yielded an IC50 of 40 nM.

For `Cc1nc(NC(=O)C2CC2)cc(-c2c(Nc3cc[nH]n3)nc3cccnn23)n1` [Cpd 120], the IC50 was 110 nM.

`COCC(=O)Nc1cc(-c2c(Nc3ccn(C)n3)nc3cccnn23)nc(C)n1` [Cpd 123, 2-methoxy-N-(2-methyl-6-(2-((1-methyl-1H-pyrazol-3-yl)amino)imidazo[1,2-b]pyridazin-3-yl)-4-pyrimidinyl)acetamide] gave an IC50 of 150 nM.

In the case of `Cc1nc(NC(=O)CC#N)cc(-c2c(Nc3ccn(C)n3)nc3ccccn23)n1` [Cpd 126, 2-cyano-N-(2-methyl-6-(2-((1-methyl-1H-pyrazol-3-yl)amino)imidazo[1,2-a]pyridin-3-yl)-4-pyrimidinyl)acetamide], the IC50 is reported as 220 nM.

`Cc1nc(NC(=O)CC(F)(F)F)cc(-c2c(Nc3ccn(C)n3)nc3cccnn23)n1` [Cpd 134, 3,3,3-trifluoro-N-(2-methyl-6-(2-((1-methyl-1H-pyrazol-3-yl)amino)imidazo[1,2-b]pyridazin-3-yl)-4-pyrimidinyl)propanamide] was tested, and the IC50 was 210 nM.

With `Cc1nc(Nc2ccc(N3CCOC(C)C3)nn2)cc(-c2c(Nc3cc[nH]n3)nc3cccnn23)n1` (centres unmarked) [Cpd 140, 3-(2-methyl-6-((6-(2-methyl-4-morpholinyl)-3-pyridazinyl)amino)-4-pyrimidinyl)-N-1H-pyrazol-3-ylimidazo[1,2-b]pyridazin-2-amine] the IC50 was 90 nM.

`Cc1nc(N)cc(-c2c(Nc3cccc(N4CCN(C)CC4)c3)nc3cccnn23)n1` [Cpd 151, 3-(6-amino-2-methyl-4-pyrimidinyl)-N-(3-(4-methyl-1-piperazinyl)-phenyl)imidazo[1,2-b]pyridazin-2-amine] gave an IC50 of 5380 nM.
